Measurements published in US10160705B2, “Class of HDAC inhibitors expands the renal progenitor cells population and improves the rate of recovery from acute kidney injury” (University of Pittsburgh—Of the Commonwealth System of …, priority 2011, dated 2018).
“Also recorded” adds a separate entry of the source. Read-outs that look alike come from different tables or passages of the source.

Columns and labels:
zebrafish embryos = test: Phenotypic screen for edema and survival in zebrafish larvae at 72 hpf; conditions: for Dead / Edemic 1 (E1) / Edemic 2 (E2) / Edemic 3 (E3) / Wild-type (WT): number of larvae (of 36), 3 μM from 2 hpf, scored at 72 hpf
In short: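 Embryos (5/well in primary screen; 12–30 per group otherwise) exposed from 2 hpf in E3 medium with 0.5% DMSO, 10 μM in screen or stated concentrations, 28.5 °C for 70 h. At 72 hpf, edema scored by phenotype classification (dominant phenotype in ≥4/5 embryos in screen); survival vs 0 μM by two-tailed Fisher's exact test (p<0.05).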

[1] = tested on: proximal convoluted tubule cells; test: Renal cell proliferation post gentamycin-induced AKI in zebrafish larvae; type: in vivo; conditions: 4 μM added 2 days post injection of gentamicin, EdU at 5 days post injection
Description: FIG. 43A is a graph showing the results of an AKI model using gentamycin-induced injury. AKI is generated as per a recent publication, Cianciolo Cosenitino, C., et al. ((2010) Intravenous microinjections of zebrafish larvae to study acute kidney injury. JoVE August 4 (42), pii: 2079. doi: 10.3791/2079). Four micromolar m4PTB (UPHD-00025) was added to the zebrafish E3 media in 0.5% DMSO at 2 days post injection of gentamicin and the larvae are scored daily for four days (6 days post injection) as alive or dead, with the final data tallied on day 6 post injection FIG. 43B.
Proliferation of renal cells was examined post AKI for m4PTB in zebrafish larvae (FIG. 44). AKI is generated as above with gentamycin, essentially as described in Example 11. Four μM m4PTB was added 2 days post injection of gentamicin. Zebrafish larvae at 5 days post injection were treated for 1 hour with the thymidine analogue EdU (10 milimolar), which incorporates into dividing (proliferating cells) while the larvae are in the zebrafish E3 media. The larvae where then fixed and processed for histology to count the number of proliferating cells in the proximal convulted tubule (as marked by the antibody 3G8). The number of proliferating cells was divided by the total number of cells in the proximal convoluted tubule to generate the percent of proliferation also known as the proliferation index as shown in FIG. 44.

Acetylated Histone H3 K9 = test: Renal histone acetylation after single S/C injection in CD1 mice; type: in vivo, mouse; conditions: 3.4 mg/kg single SC injection, 24 hours
Description: PTBA analogs are used at a dose range determined from comparative dose efficacy with m4PTB in the secondary zebrafish screen. […] Preliminary studies compared the effect of Trichostatin A (an established, but toxic HDACi) at an effective dose in the zebrafish screen ([…]) with an equivalent dose of m4PTB (0.8 mM), and then ×2 and ×4 dose increments (molar concentration in vivo based on estimate uniform distribution relative to body mass of water). […] Studies may be performed on 3 mice/group.

renal progenitor cells = test: In situ hybridization for lhx1a expression in 10-somite embryos (renal progenitor cell expansion); type: in vivo; conditions: for Lhx1a expansion caused by analog treatment, 800 nM: 800 nM from 2 hpf; for EC50: first pass EC50 from percent expansion (Excel trendline), average where several experiments; on Lhx1a expansion caused by analog treatment, 3 μM: key: effective (+); partially effective (+/−); ineffective (−); Analogs that killed all embryos at a given concentration before reaching 10 somites are listed as XX; on Lhx1a expansion caused by analog treatment, 400 nM: key: effective (+); partially effective (+/−); ineffective (−); Analogs that killed all embryos at a given concentration before reaching 10 somites are listed as XX; on Lhx1a expansion caused by analog treatment, 800 nM: key: effective (+); partially effective (+/−); ineffective (−); Analogs that killed all embryos at a given concentration before reaching 10 somites are listed as XX
In short: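 Zebrafish embryos treated with compound, then colorimetric whole-mount in situ hybridization (65° C) for lhx1a mRNA at 10 somites. Embryos with expanded kidney field counted manually as percent of total. EC50 taken as 50% point of percent-expansion trendline; compounds also classed effective, partial or ineffective versus PTBA at matched concentration.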

HDAC = conditions: 5 mM; cited from earlier work
human HDACs = test: Fluorescence histone deacetylation assay with HeLa cell nuclear extract; type: biochemical; conditions: 5 mM compound
Description: To evaluate this in vitro, the deacetylation of a fluorescent peptide substrate was measured in the presence of human HDACs.
In vitro HDAC activity assays were performed using a fluorescence HDAC assay kit (Active Motif) according to the manufacturer's instructions. For maintaining compound solubility at 5 mM, the final DMSO concentration in all assay wells was increased to 5%. Fluorescence was detected using an M5 Plate Reader ([…])

histone H4 = test: Histone H4 hyperacetylation Western blot in treated embryos; type: in vivo, zebrafish; conditions: 24 hpf embryos, 6 hours; 3 μM PTBA, 25 μM PBA, 200 nM TSA
Description: It was next determined whether the HDACi function of PTBA was quantifiable in vivo. 24 hpf embryos were treated with 3 μM PTBA, 25 μM PBA, or 200 nM TSA for 6 hours. Protein extracts were prepared and immunoblotted with an anti-hyperacetylated histone H4 antibody. […] Furthermore, increasing the compound concentration caused a corresponding increase in hyperacetylation (FIG. 21).
SDS-PAGE and Western blotting were performed as described previously with some modifications (Noel, E. S. et al. Organ-specific requirements for Hdac1 in liver and pancreas formation. Dev Biol 322, 237-250, (2008)). Proteins were separated on 18% SDS-PAGE gels. Membranes were incubated at 4° C. overnight with 1:1000 anti-hyperacetylated histone H4 antibody (06-946, Millipore) or 1:1000 anti-α-tubulin antibody (Sigma-Aldrich) in PBT containing 5% nonfat milk.

CD1 mice = test: Folic acid-induced AKI in CD1 mice; type: in vivo, mouse; conditions: daily IP from 24 hrs after folic acid, 15 days
Description: FIG. 42 are photomicrographs showing the results of an AKI model using folic acid-induced injury. Folic acid is administered to CD1 mice (n=6/group) intraperitoneally (IP) at […] in 0.3M NaHCO3. Compound UPHD-00022 was injected daily IP at […] in 30% PEG300 vehicle starting 24 hrs after folic acid treatment. Kidney tissue was stained using Trichrome and Sirus Red stained after 15 days. Blue in trichrome and the red in sirus red indicates fibrotic (scar) tissue.

[2] = 1.5 μM from 2 hpf, 10-somite embryos
[3] = 3 μM from 2 hpf, 10-somite embryos
[4] = Danio rerio, 1.5 μM from 2 hpf, 10-somite embryos, read-out: lhx1a expansion, percent of treated embryos
[5] = Danio rerio, percent of embryos with expanded kidney field, 1.5 μM, read-out: Expansion of Cells (including repeats* and recounts**) 1.5 μM
[6] = Danio rerio, percent of embryos with expanded kidney field, 3 μM, read-out: Expansion of Cells (including repeats* and recounts**) 3 μM

Structure (SMILES) | Dead (zebrafish embryos) | Edemic 1 (E1) (zebrafish embryos) | Edemic 2 (E2) (zebrafish embryos) | Edemic 3 (E3) (zebrafish embryos) | Wild-type (WT) (zebrafish embryos) | Lhx1a expansion caused by analog treatment, 800 nM (renal progenitor cells; 10-somite embryos) | Lhx1a expansion caused by analog treatment, 1.5 μM (renal progenitor cells; [2]) | Lhx1a expansion caused by analog treatment, 3 μM (renal progenitor cells; [3]) | responders at 1.5 µM (renal progenitor cells; [4]) [%] | responders at 1.5 µM (renal progenitor cells; [5]) [%] | responders at 3 µM (renal progenitor cells; [6]) [%] | EC50 (renal progenitor cells; Danio rerio) [nM] | further results
COC(=O)CCCSc1ccccc1 [UPHD-00025, methyl 4-(phenylsulfanyl)butanoate (m4PTB)] | 8 | 0 | 2 | 26 | 0 | +/− | + | + | 89 | 89 | 97 | 432 | renal cell proliferation (proliferation index) [1]: significantly increased; renal Ac-H3 K9 induction (Acetylated Histone H3 K9): maximal expression of Ac—H3 K9; also recorded: maximal induction of H3K9A; responders at 3 µM (renal progenitor cells; Danio rerio, 3 μM from 2 hpf, 10-somite embryos, read-out: lhx1a expansion, percent of treated embryos): 100%; responders at 0.2 µM (renal progenitor cells; Danio rerio, percent of embryos with expanded kidney field, 200 nM, read-out: Expansion of Cells (including repeats* and recounts**) 200 nM): 33%
O=C(O)CCCc1ccccc1 [PBA, 4-phenylbutanoic acid, reference compound] | 0 | 0 | 0 | 0 | 36 |  |  | − |  |  |  |  | larvae with edemic phenotype / pericardial edema by 72 hpf (zebrafish embryos; 3 μM PTBA, 25 μM PBA, 200 nM TSA): 23%; death by 72 hpf (zebrafish embryos; 25 μM PBA, 200 nM TSA, n=90): 8%; HDAC activity, percent of the control value (HDAC): 19%; HDAC activity elicited by 10 μg HeLa extract, percent of the control value (human HDACs): 30%; concentration producing an expansion of lhx1a expression consistent with 3 μM PTBA (renal progenitor cells; concentration-response, 10-somite embryos): 25 µM; histone H4 hyperacetylation (histone H4): Histone H4 hyperacetylation was observed
COC(=O)CCCSc1ccc(OC)cc1 [UPHD-00022, methyl 4-[(4-methoxy-phenyl)sulfanyl]butanoate] | 1 | 2 | 24 | 9 | 0 | + | + | + | 91 | 83 | 85 | 1400 | renal fibrosis (Trichrome and Sirus Red) (CD1 mice): reduction in fibrosis; Lhx1a expansion caused by analog treatment, 400 nM (renal progenitor cells; 400 nM from 2 hpf, 10-somite embryos): +/−; responders at 0.8 µM (renal progenitor cells; Danio rerio, percent of embryos with expanded kidney field, 800 nM, read-out: Expansion of Cells (including repeats* and recounts**) 800 nM): 39%; responders at 0.4 µM (renal progenitor cells; Danio rerio, read-out: lhx1a expansion, percent of treated embryos, 400 nM from 2 hpf, 10-somite embryos): 29%; responders at 0.8 µM (renal progenitor cells; Danio rerio, read-out: lhx1a expansion, percent of treated embryos, 800 nM from 2 hpf, 10-somite embryos): 57%
